ChEMBL document CHEMBL4382280, “Inhibitors of G12C Mutant Ras Proteins for the Treatment of Cancers” (ACS Med Chem Lett, 2019)
pIC50: −log10 of the molar value.

Molecular target: GTPase KRas (Homo sapiens, UniProt P01116, G12C)
Assay: Inhibition of GDP loaded biotin-labeled KRAS G12C mutant (unknown origin) assessed as reduction in guanine nucleotide exchange preincubated for 4 hrs followed by GST-RAF-RBD addition in presence of GTPgammaS by FRET assay

GTPase KRas, sequence (P01116 whole entry G12C): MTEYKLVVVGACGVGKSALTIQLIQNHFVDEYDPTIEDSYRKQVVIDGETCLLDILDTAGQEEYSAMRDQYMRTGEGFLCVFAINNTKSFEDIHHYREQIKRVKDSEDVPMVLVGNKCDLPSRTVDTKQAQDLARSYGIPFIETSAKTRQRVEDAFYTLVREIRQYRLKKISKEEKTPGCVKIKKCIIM

pIC50 | Structure (SMILES)
6.91 | C=CC(=O)N1CCN2c3ncnc4cc(-c5c(C)ccc6[nH]ncc56)c(Cl)c(c34)OC[C@@H]2C1 (stereo in doubt; form 1)
7.92 | C=CC(=O)N1CCN2c3ncnc4cc(-c5c(C)ccc6[nH]ncc56)c(Cl)c(c34)OC[C@@H]2C1 (stereo in doubt; form 3)
